This passage reports melting point results from patent publication US6881844B2, “Indole-3-carboxamides as glucokinase activators” (Hoffman-La Roche Inc., priority 2002, dated 2005).

By melting point is commonly meant the temperature of the solid-liquid transition.

`Cc1ccc2c(C(=O)Nc3nccs3)cn(C(C)C)c2c1` returned a melting point of 215 to 217 °C.
Molecule `CC(C)n1cc(C(=O)Nc2nccs2)c2ccc(Cl)cc21` registered a melting point of 202 to 204 °C.
`CCn1cc(C(=O)Nc2nccs2)c2ccc(Cl)cc21` displayed a melting point of 234 to 236 °C.
`CCCn1cc(C(=O)Nc2nccs2)c2ccc(Cl)cc21` gave a melting point of 175 to 176 °C.
`CCCCn1cc(C(=O)Nc2nccs2)c2ccc(Cl)cc21` showed a melting point of 168 to 169 °C.
Under `CC(C)Cn1cc(C(=O)Nc2nccs2)c2ccc(Cl)cc21` stands 200 to 202 °C.
For `CCCCCn1cc(C(=O)Nc2nccs2)c2ccc(Cl)cc21`, the melting point fell in the range of 139 to 141 °C.
`CC(C)CCn1cc(C(=O)Nc2nccs2)c2ccc(Cl)cc21` yielded a melting point of 179 to 180 °C.
Regarding `O=C(Nc1nccs1)c1cn(CC2CC2)c2cc(Cl)ccc12`, the melting point is 185 to 187 °C.
Then `O=C(Nc1nccs1)c1cn(CC2CCC2)c2cc(Cl)ccc12`, with 169 to 173 °C; and `O=C(Nc1nccs1)c1cn(CC2CCCC2)c2cc(Cl)ccc12`, with 117 to 119 °C.
Then `CC(C)n1cc(C(=O)Nc2nccs2)c2ccc(C(F)(F)F)cc21`, with 246 to 247 °C.
Under `O=C(Nc1nccs1)c1cn(CC2CCCCC2)c2cc(Cl)ccc12` stands 181 to 183 °C; under `CC(C)n1cc(C(=O)Nc2nncs2)c2ccc(Cl)cc21`, 274 to 275 °C; under `Cc1cnc(NC(=O)c2cn(C(C)C)c3cc(Cl)ccc23)s1`, 216 to 219 °C.
In the case of `Cc1csc(NC(=O)c2cn(C(C)C)c3cc(Cl)ccc23)n1`, the melting point lay within 201 to 203 °C.
Molecule `CC(C)n1cc(C(=O)Nc2ncc(Cl)s2)c2ccc(Cl)cc21` came in with a melting point of 252 to 253 °C.
Under `CC(C)n1cc(C(=O)Nc2ncc(Br)s2)c2ccc(Cl)cc21` stands 240 to 242 °C; under `CCOC(=O)Cc1csc(NC(=O)c2cn(C(C)C)c3cc(Cl)ccc23)n1`, 65 to 75 °C; under `CC(C)n1cc(C(=O)Nc2ccccn2)c2ccc(Cl)cc21`, 149 to 150 °C.
The molecule `Cc1ccc(NC(=O)c2cn(C(C)C)c3cc(Cl)ccc23)nc1` had a melting point of 132 to 134 °C.
With `CC(C)n1cc(C(=O)Nc2ccc(C(F)(F)F)cn2)c2ccc(Cl)cc21`, the melting point was 179 to 181 °C.
For `CC(C)n1cc(C(=O)Nc2nccs2)c2ccc([N+](=O)[O-])cc21`, the melting point lay within 236 to 239 °C.
In turn, `CC(C)n1cc(C(=O)Nc2ccc(Cl)cn2)c2ccc(Cl)cc21` showed a melting point of 131 to 134 °C.
Molecule `CC(C)n1cc(C(=O)Nc2ccc(Br)cn2)c2ccc(Cl)cc21` displayed a melting point of 57 to 64 °C.
The molecule `CC(C)n1cc(C(=O)Nc2nccs2)c2ccc(O)cc21` came in with a melting point of 239 to 241 °C.
Under `COc1ccc2c(C(=O)Nc3nccs3)cn(C(C)C)c2c1` stands 182 to 185 °C.
Under `CSc1ccc2c(C(=O)Nc3nccs3)cn(C(C)C)c2c1` stands 172 to 176 °C; under `CC(C)n1cc(C(=O)Nc2nccs2)c2ccc(S(C)(=O)=O)cc21`, 247 to 249 °C.
Then `CC(C)n1cc(C(=O)Nc2nccs2)c2ccc(F)cc21`, with 203 to 204 °C; and `CC(C)n1cc(C(=O)Nc2nccs2)c2ccc(Br)cc21`, with 205 to 207 °C.
